Reference: PubChem BioAssay AID1259407 (Chemical Carcinogenesis Research Information System (CCRIS), 2018)
Activity calls are given as the source filed them. No rule for the calls is given here.

Tested on: CCRIS mutagenicity, Ames/micronucleus/aberration tests
Assay: CCRIS mutagenicity studies

With `CC=O` the mutagenic call (End Point: In vitro chromosomal aberrations, Test System: Chinese hamster lung (CHL/IU) cells, Metabolic Activation: None) was “active; positive (structural changes)”, the mutagenic call (End Point: In vitro chromosomal aberrations, Test System: Chinese hamster lung (CHL/IU) cells, Metabolic Activation: Rat, Liver, S9, Phenobarbital and 5,6-benzoflavone) was “active; positive (structural changes)” and the mutagenic call (End Point: In vivo micronucleus, Test System: Peripheral blood reticulocytes, Species: Mouse, Strain/Sex: Aldh2+/+ aldehyde dehydrogenase-2 sufficient /male, Route: Inhalation) was “inactive; negative”. The mutagenic call (End Point: In vivo micronucleus, Test System: Peripheral blood reticulocytes, Species: Mouse, Strain/Sex: Aldh2+/+ aldehyde dehydrogenase-2 sufficient /male, Route: Oral) was “inactive; negative”, the mutagenic call (End Point: In vivo micronucleus, Test System: Peripheral blood reticulocytes, Species: Mouse, Strain/Sex: Aldh2-/- aldehyde dehydrogenase-2 null /male, Route: Inhalation) was “active; positive” and the mutagenic call (End Point: In vivo micronucleus, Test System: Peripheral blood reticulocytes, Species: Mouse, Strain/Sex: Aldh2-/- aldehyde dehydrogenase-2 null /male, Route: Oral) was “active; positive”. The mutagenic call (Test System: AMES SALMONELLA TYPHIMURIUM, Strain/Indicator: TA98, Metabolic Activation: HAMSTER, LIVER, S-9, AROCLOR 1254, Method: STANDARD PLATE) was “inactive; negative”, the mutagenic call (Test System: AMES SALMONELLA TYPHIMURIUM, Strain/Indicator: TA98, Metabolic Activation: NONE, Method: GAS EXPOSURE) was “inactive; negative” and the mutagenic call (Test System: AMES SALMONELLA TYPHIMURIUM, Strain/Indicator: TA98, Metabolic Activation: NONE, Method: PREINCUBATION) was “inactive; negative”. The mutagenic call (Test System: AMES SALMONELLA TYPHIMURIUM, Strain/Indicator: TA98, Metabolic Activation: NONE, Method: STANDARD PLATE) was “inactive; negative”, the mutagenic call (Test System: AMES SALMONELLA TYPHIMURIUM, Strain/Indicator: TA98, Metabolic Activation: RAT LIVER S-9, PHENOBARBITAL AND BETA-NAPHTHOFLAVONE, Method: PREINCUBATION) was “inactive; negative” and the mutagenic call (Test System: AMES SALMONELLA TYPHIMURIUM, Strain/Indicator: TA98, Metabolic Activation: RAT, LIVER, S-9, AROCLOR 1254, Method: PREINCUBATION) was “inactive; negative”. The mutagenic call (Test System: AMES SALMONELLA TYPHIMURIUM, Strain/Indicator: TA98, Metabolic Activation: RAT, LIVER, S-9, AROCLOR 1254, Method: STANDARD PLATE) was “inactive; negative”, the mutagenic call (Test System: AMES SALMONELLA TYPHIMURIUM, Strain/Indicator: TA98, Metabolic Activation: RAT, LIVER, S-9, PHENOBARBITAL AND BETA-NAPHTHOFLAVONE, Method: GAS EXPOSURE) was “inactive; negative” and the mutagenic call (Test System: AMES SALMONELLA TYPHIMURIUM, Strain/Indicator: TA100, Metabolic Activation: HAMSTER, LIVER, S-9, AROCLOR 1254, Method: STANDARD PLATE) was “inactive; negative”. The mutagenic call (Test System: AMES SALMONELLA TYPHIMURIUM, Strain/Indicator: TA100, Metabolic Activation: MOUSE LIVER S-9, AROCLOR 1254, Method: VAPOR PHASE) was “inactive; negative”, the mutagenic call (Test System: AMES SALMONELLA TYPHIMURIUM, Strain/Indicator: TA100, Metabolic Activation: NONE, Method: GAS EXPOSURE) was “inactive; negative” and the mutagenic call (Test System: AMES SALMONELLA TYPHIMURIUM, Strain/Indicator: TA100, Metabolic Activation: NONE, Method: PREINCUBATION) was “inactive; negative”. For the same molecule, the mutagenic call (Test System: AMES SALMONELLA TYPHIMURIUM, Strain/Indicator: TA100, Metabolic Activation: NONE, Method: STANDARD PLATE) was “inactive; negative”, the mutagenic call (Test System: AMES SALMONELLA TYPHIMURIUM, Strain/Indicator: TA100, Metabolic Activation: NONE, Method: VAPOR PHASE) was “inactive; negative” and the mutagenic call (Test System: AMES SALMONELLA TYPHIMURIUM, Strain/Indicator: TA100, Metabolic Activation: RAT LIVER S-9, AROCLOR 1254, Method: VAPOR PHASE) was “inactive; negative”. For the same molecule, the mutagenic call (Test System: AMES SALMONELLA TYPHIMURIUM, Strain/Indicator: TA100, Metabolic Activation: RAT LIVER S-9, PHENOBARBITAL AND BETA-NAPHTHOFLAVONE, Method: PREINCUBATION) was “inactive; negative”, the mutagenic call (Test System: AMES SALMONELLA TYPHIMURIUM, Strain/Indicator: TA100, Metabolic Activation: RAT, LIVER, S-9, AROCLOR 1254, Method: PREINCUBATION) was “inactive; negative” and the mutagenic call (Test System: AMES SALMONELLA TYPHIMURIUM, Strain/Indicator: TA100, Metabolic Activation: RAT, LIVER, S-9, AROCLOR 1254, Method: STANDARD PLATE) was “inactive; negative”. The mutagenic call (Test System: AMES SALMONELLA TYPHIMURIUM, Strain/Indicator: TA100, Metabolic Activation: RAT, LIVER, S-9, PHENOBARBITAL AND BETA-NAPHTHOFLAVONE, Method: GAS EXPOSURE) was “inactive; negative”, the mutagenic call (Test System: AMES SALMONELLA TYPHIMURIUM, Strain/Indicator: TA102, Metabolic Activation: MOUSE LIVER S-9, AROCLOR 1254, Method: VAPOR PHASE) was “inactive; negative” and the mutagenic call (Test System: AMES SALMONELLA TYPHIMURIUM, Strain/Indicator: TA102, Metabolic Activation: NONE, Method: PREINCUBATION) was “inactive; negative”. The mutagenic call (Test System: AMES SALMONELLA TYPHIMURIUM, Strain/Indicator: TA102, Metabolic Activation: NONE, Method: VAPOR PHASE) was “inactive; negative”, the mutagenic call (Test System: AMES SALMONELLA TYPHIMURIUM, Strain/Indicator: TA102, Metabolic Activation: RAT, LIVER, S-9, AROCLOR 1254, Method: PREINCUBATION) was “inactive; negative” and the mutagenic call (Test System: AMES SALMONELLA TYPHIMURIUM, Strain/Indicator: TA104, Metabolic Activation: MOUSE LIVER S-9, AROCLOR 1254, Method: VAPOR PHASE) was “inactive; negative”. The mutagenic call (Test System: AMES SALMONELLA TYPHIMURIUM, Strain/Indicator: TA104, Metabolic Activation: NONE, Method: VAPOR PHASE) was “inactive; negative”, the mutagenic call (Test System: AMES SALMONELLA TYPHIMURIUM, Strain/Indicator: TA104, Metabolic Activation: RAT LIVER S-9, AROCLOR 1254, Method: VAPOR PHASE) was “inactive; negative” and the mutagenic call (Test System: AMES SALMONELLA TYPHIMURIUM, Strain/Indicator: TA1535, Metabolic Activation: HAMSTER, LIVER, S-9, AROCLOR 1254, Method: STANDARD PLATE) was “inactive; negative”. For the same molecule, the mutagenic call (Test System: AMES SALMONELLA TYPHIMURIUM, Strain/Indicator: TA1535, Metabolic Activation: NONE, Method: GAS EXPOSURE) was “inactive; negative”, the mutagenic call (Test System: AMES SALMONELLA TYPHIMURIUM, Strain/Indicator: TA1535, Metabolic Activation: NONE, Method: PREINCUBATION) was “inactive; negative” and the mutagenic call (Test System: AMES SALMONELLA TYPHIMURIUM, Strain/Indicator: TA1535, Metabolic Activation: NONE, Method: STANDARD PLATE) was “inactive; negative”. The mutagenic call (Test System: AMES SALMONELLA TYPHIMURIUM, Strain/Indicator: TA1535, Metabolic Activation: RAT LIVER S-9, PHENOBARBITAL AND BETA-NAPHTHOFLAVONE, Method: PREINCUBATION) was “inactive; negative”, the mutagenic call (Test System: AMES SALMONELLA TYPHIMURIUM, Strain/Indicator: TA1535, Metabolic Activation: RAT, LIVER, S-9, AROCLOR 1254, Method: STANDARD PLATE) was “inactive; negative” and the mutagenic call (Test System: AMES SALMONELLA TYPHIMURIUM, Strain/Indicator: TA1535, Metabolic Activation: RAT, LIVER, S-9, PHENOBARBITAL AND BETA-NAPHTHOFLAVONE, Method: GAS EXPOSURE) was “inactive; negative”. For the same molecule, the mutagenic call (Test System: AMES SALMONELLA TYPHIMURIUM, Strain/Indicator: TA1537, Metabolic Activation: HAMSTER, LIVER, S-9, AROCLOR 1254, Method: STANDARD PLATE) was “inactive; negative”, the mutagenic call (Test System: AMES SALMONELLA TYPHIMURIUM, Strain/Indicator: TA1537, Metabolic Activation: NONE, Method: GAS EXPOSURE) was “inactive; negative” and the mutagenic call (Test System: AMES SALMONELLA TYPHIMURIUM, Strain/Indicator: TA1537, Metabolic Activation: NONE, Method: PREINCUBATION) was “inactive; negative”. The mutagenic call (Test System: AMES SALMONELLA TYPHIMURIUM, Strain/Indicator: TA1537, Metabolic Activation: NONE, Method: STANDARD PLATE) was “inactive; negative”, the mutagenic call (Test System: AMES SALMONELLA TYPHIMURIUM, Strain/Indicator: TA1537, Metabolic Activation: RAT LIVER S-9, PHENOBARBITAL AND BETA-NAPHTHOFLAVONE, Method: PREINCUBATION) was “inactive; negative” and the mutagenic call (Test System: AMES SALMONELLA TYPHIMURIUM, Strain/Indicator: TA1537, Metabolic Activation: RAT, LIVER, S-9, AROCLOR 1254, Method: STANDARD PLATE) was “inactive; negative”. For the same molecule, the mutagenic call (Test System: AMES SALMONELLA TYPHIMURIUM, Strain/Indicator: TA1537, Metabolic Activation: RAT, LIVER, S-9, PHENOBARBITAL AND BETA-NAPHTHOFLAVONE, Method: GAS EXPOSURE) was “inactive; negative”, the mutagenic call (Test System: AMES SALMONELLA TYPHIMURIUM, Strain/Indicator: TA1538, Metabolic Activation: HAMSTER, LIVER, S-9, AROCLOR 1254, Method: STANDARD PLATE) was “inactive; negative” and the mutagenic call (Test System: AMES SALMONELLA TYPHIMURIUM, Strain/Indicator: TA1538, Metabolic Activation: NONE, Method: PREINCUBATION) was “inactive; negative”. The mutagenic call (Test System: AMES SALMONELLA TYPHIMURIUM, Strain/Indicator: TA1538, Metabolic Activation: NONE, Method: STANDARD PLATE) was “inactive; negative”, the mutagenic call (Test System: AMES SALMONELLA TYPHIMURIUM, Strain/Indicator: TA1538, Metabolic Activation: RAT LIVER S-9, PHENOBARBITAL AND BETA-NAPHTHOFLAVONE, Method: PREINCUBATION) was “inactive; negative” and the mutagenic call (Test System: AMES SALMONELLA TYPHIMURIUM, Strain/Indicator: TA1538, Metabolic Activation: RAT, LIVER, S-9, AROCLOR 1254, Method: STANDARD PLATE) was “inactive; negative”. For the same molecule, the mutagenic call (Test System: E. COLI, Strain/Indicator: WP2UVRA, Metabolic Activation: NONE, Method: GAS EXPOSURE) was “inactive; negative”, the mutagenic call (Test System: E. COLI, Strain/Indicator: WP2UVRA, Metabolic Activation: RAT, LIVER, S-9, PHENOBARBITAL AND BETA-NAPHTHOFLAVONE, Method: GAS EXPOSURE) was “inactive; negative” and the mutagenic call (Test System: E.COLI, Strain/Indicator: WP2UVRA, Metabolic Activation: NONE, Method: PREINCUBATION) was “inactive; negative”. The mutagenic call (Test System: E.COLI, Strain/Indicator: WP2UVRA, Metabolic Activation: RAT LIVER S-9, PHENOBARBITAL AND BETA-NAPHTHOFLAVONE, Method: PREINCUBATION) was “inactive; negative”, the mutagenic call (Test System: HUMAN SKIN FIBROBLASTS, Strain/Indicator: 6-THIOGUANINE, Metabolic Activation: NONE) was “active; positive” and the mutagenic call (Test System: MOUSE LYMPHOMA, Strain/Indicator: L5178Y (TK+/TK-), Metabolic Activation: RAT, LIVER, S-9, AROCLOR 1254, Method: SUSPENSION/PLATE) was “active; positive. reevaluation of results: inconclusive”.
